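Five compound concentrations were applied to cells in 96-well plates for 48 hours; endpoints were derived by simple linear interpolation of the resulting dose-response curve. TGI denotes the concentration required for complete inhibition of growth.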
Experiments:
Assay in all cases: growth of human tumour cells (NCI), 48 h
[1] = tested on: NCI-H460 lung
[2] = tested on: CAKI-1 renal
[3] = tested on: SF-268 CNS
[4] = tested on: HT29 colon
[5] = tested on: TK-10 renal
[6] = tested on: UACC-257 melanoma
[7] = tested on: MDA-N
[8] = tested on: MALME-3M melanoma
[9] = tested on: BT-549 breast
[10] = tested on: MOLT-4 leukemia
[11] = tested on: MCF7 breast
[12] = tested on: PC-3 prostate
[13] = tested on: MDA-MB-435
[14] = tested on: SK-MEL-5 melanoma
[15] = tested on: NCI-H522 lung
[16] = tested on: NCI/ADR-RES ovarian
[17] = tested on: SR leukemia
[18] = tested on: HOP-62 NSCLC
[19] = tested on: HS 578T breast
[20] = tested on: RXF 393 renal
[21] = tested on: OVCAR-5 ovarian
[22] = tested on: A498 renal
[23] = tested on: HCT-15 colon
[24] = tested on: OVCAR-8 ovarian
[25] = tested on: DU-145 prostate
[26] = tested on: 786-0 renal
[27] = tested on: ACHN renal
[28] = tested on: K-562 leukemia
[29] = tested on: HL-60(TB) leukemia
[30] = tested on: IGROV1 ovarian
[31] = tested on: SNB-19 CNS
[32] = tested on: M14 melanoma
[33] = tested on: A549 NSCLC
[34] = tested on: HOP-92 NSCLC
[35] = tested on: HCT-116 colon
[36] = tested on: T-47D breast
[37] = tested on: SK-MEL-28 melanoma
[38] = tested on: KM12 colon
[39] = tested on: SN12C renal
[40] = tested on: HCC-2998 colon
[41] = tested on: NCI-H23 lung
[42] = tested on: UO-31 renal
[43] = tested on: UACC-62 melanoma
[44] = tested on: SK-OV-3 ovarian
[45] = tested on: SF-295 CNS
[46] = tested on: SW-620 colon
[47] = tested on: OVCAR-4 ovarian
[48] = tested on: EKVX NSCLC
[49] = tested on: NCI-H226 lung
[50] = tested on: SK-MEL-2 melanoma
[51] = tested on: RPMI-8226 leukemia
[52] = tested on: SNB-75 CNS
[53] = tested on: CCRF-CEM leukemia
[54] = tested on: SF-539 CNS
[55] = tested on: U251 CNS
[56] = tested on: COLO 205 colon
[57] = tested on: MDA-MB-231 breast
[58] = tested on: LOX IMVI melanoma
[59] = tested on: OVCAR-3 ovarian

Measured: TGI

CNC(=O)C(NC(=O)[C@H](CC(C)C)NC(=O)[C@@H](S)CCN1C(=O)N(C)C(C)(C)C1=O)C(C)(C)C (some centres undefined)
> 100 µM: [1] | [2] | [3] | [4] | [5] | [6] | [7] | [8] | [9] | [10] | [11] | [12] | [13] | [14] | [15] | [16] | [17] | [18] | [19] | [20] | [21] | [22] | [23] | [24] | [25] | [26] | [27] | [28] | [29] | [30] | [31] | [32] | [33] | [34] | [35] | [36] | [37] | [38] | [39] | [40] | [41] | [42] | [43] | [44] | [45] | [46] | [47] | [48] | [49] | [50] | [51]

COc1ccc2c(c1)-c1c(c3ccccc3n1CCN1CCOCC1)CC2
> 100 µM: [6] | [7] | [11] | [13] | [21] | [23] | [25] | [27] | [32] | [33] | [34] | [36] | [37] | [39] | [44] | [46] | [47]
49.4 µM: [43]
34.3 µM: [40]
81.9 µM: [2]
90.9 µM: [57]
32.5 µM: [56]
1.78 µM: [5]
34.5 µM: [58]
35.5 µM: [45]
32.3 µM: [19]
65.6 µM: [41]
63.5 µM: [9]
52.4 µM: [54]
96.8 µM: [42]
97 µM: [51]
76.8 µM: [35]
25.9 µM: [4]
46.2 µM: [8]
71.5 µM: [31]
54.1 µM: [26]
53.2 µM: [24]
63.8 µM: [48]
56.6 µM: [59]
37.9 µM: [10]
49 µM: [52]
46 µM: [16]
31.3 µM: [14]
34.2 µM: [1]
54.5 µM: [28]
26.7 µM: [38]
53.3 µM: [17]
38.5 µM: [30]
37.3 µM: [15]
45.3 µM: [12]
76.9 µM: [3]
28.9 µM: [50]
26.3 µM: [49]
81.8 µM: [55]
74.8 µM: [18]
85.8 µM: [53]

Nc1n[n+]([O-])c2cnccc2[n+]1[O-]
> 100 µM: [1] | [2] | [3] | [4] | [5] | [9] | [10] | [12] | [15] | [16] | [52] | [17] | [18] | [19] | [53] | [21] | [23] | [24] | [25] | [26] | [27] | [54] | [55] | [30] | [31] | [32] | [56] | [33] | [57] | [35] | [58] | [36] | [37] | [38] | [39] | [40] | [41] | [42] | [44] | [45] | [46] | [47] | [49] | [50] | [51] | [59]
30 µM: [14]
47.7 µM: [29]
84.9 µM: [43]
36.6 µM: [7]
77.9 µM: [6]
38.5 µM: [13]

CC(Nc1cc(=O)n(C)c(=O)[nH]1)c1ccccc1 (centres undefined)
> 100 µM: [1] | [2] | [3] | [4] | [5] | [6] | [7] | [9] | [10] | [11] | [12] | [13] | [14] | [15] | [16] | [52] | [17] | [18] | [19] | [20] | [53] | [21] | [22] | [23] | [24] | [25] | [26] | [27] | [28] | [29] | [54] | [55] | [30] | [31] | [32] | [56] | [33] | [57] | [34] | [35] | [58] | [36] | [37] | [38] | [39] | [40] | [41] | [42] | [43] | [45] | [46] | [47] | [48] | [50] | [59]
